Columns and labels:
Format in all cases: in vivo
Amaranthus retroflexus [1] = test: Pre-emergence herbicidal activity, AMARE; conditions: Application pre-emergence, 1000 g/Ha, evaluated after 13 days, scale 0-5
Procedure: (§1) Seeds of a variety of test species were sown in standard soil in pots. After cultivation for one day (pre-emergence) under controlled conditions in a glasshouse (at 24/16° C., day/night; 14 hours light; 65% humidity), the plants were sprayed with an aqueous spray solution derived from the formulation of the technical active ingredient in acetone/water (50:50) solution containing 0.5% Tween 20 (polyoxyethelyene sorbitan monolaurate, CAS RN 9005-64-5). The test plants were then grown in a glasshouse under controlled conditions (at 24/16° C., day/night; 14 hours light; 65% humidity) and watered twice daily. After 13 days, the test was evaluated (5=total damage to plant; 0=no damage to plant).

Echinochloa crus-galli [2] = test: Pre-emergence herbicidal activity, ECHCG; conditions: Application pre-emergence, 1000 g/Ha, evaluated after 13 days, scale 0-5
Procedure: as §1

Abutilon theophrasti [3] = test: Pre-emergence herbicidal activity, ABUTH; conditions: Application pre-emergence, 1000 g/Ha, evaluated after 13 days, scale 0-5
Procedure: as §1

Setaria faberi [4] = test: Pre-emergence herbicidal activity, SETFA; conditions: Application pre-emergence, 1000 g/Ha, evaluated after 13 days, scale 0-5
Procedure: as §1

Zea mays [5] = test: Pre-emergence herbicidal activity, ZEAMX; conditions: Application pre-emergence, 1000 g/Ha, evaluated after 13 days, scale 0-5
Procedure: as §1

Amaranthus retroflexus [6] = test: Post-emergence herbicidal activity, AMARE; conditions: Application post-emergence, 1000 g/Ha, evaluated after 13 days, scale 0-5
Procedure: (§2) Seeds of a variety of test species were sown in standard soil in pots. After 8 days cultivation (post-emergence) under controlled conditions in a glasshouse (at 24/16° C., day/night; 14 hours light; 65% humidity), the plants were sprayed with an aqueous spray solution derived from the formulation of the technical active ingredient in acetone/water (50:50) solution containing 0.5% Tween 20 (polyoxyethelyene sorbitan monolaurate, CAS RN 9005-64-5). The test plants were then grown in a glasshouse under controlled conditions (at 24/16° C., day/night; 14 hours light; 65% humidity) and watered twice daily. After 13 days, the test was evaluated (5=total damage to plant; 0=no damage to plant).

Abutilon theophrasti [7] = test: Post-emergence herbicidal activity, ABUTH; conditions: Application post-emergence, 1000 g/Ha, evaluated after 13 days, scale 0-5
Procedure: as §2

Setaria faberi [8] = test: Post-emergence herbicidal activity, SETFA; conditions: Application post-emergence, 1000 g/Ha, evaluated after 13 days, scale 0-5
Procedure: as §2

Echinochloa crus-galli [9] = test: Post-emergence herbicidal activity, ECHCG; conditions: Application post-emergence, 1000 g/Ha, evaluated after 13 days, scale 0-5
Procedure: as §2

Zea mays [10] = test: Post-emergence herbicidal activity, ZEAMX; conditions: Application post-emergence, 1000 g/Ha, evaluated after 13 days, scale 0-5
Procedure: as §2

SMILES | AMARE damage score (Amaranthus retroflexus [1]) | ECHCG damage score (Echinochloa crus-galli [2]) | ABUTH damage score (Abutilon theophrasti [3]) | SETFA damage score (Setaria faberi [4]) | ZEAMX damage score (Zea mays [5]) | AMARE damage score (Amaranthus retroflexus [6]) | ABUTH damage score (Abutilon theophrasti [7]) | SETFA damage score (Setaria faberi [8]) | ECHCG damage score (Echinochloa crus-galli [9]) | ZEAMX damage score (Zea mays [10])
Cc1ccc(-c2cnc(N3C(=O)N(C)CC3O)cc2C(F)(F)F)cn1 (centres unmarked) [Compound A20] | 5 | 5 | 5 | 5 | 3 | 5 | 5 | 5 | 5 | 4
CN1CC(O)N(c2cc(C(F)(F)F)c(-c3ccc(Cl)nc3)cn2)C1=O (centres unmarked) [Compound A21] | 5 | 5 | 5 | 5 | 3 | 5 | 5 | 5 | 5 | 5
CN1CC(O)N(c2cc(C(F)(F)F)c(-c3cncc(Cl)c3)cn2)C1=O (centres unmarked) [Compound A22] | 5 | 5 | 5 | 5 | 3 | 5 | 5 | 5 | 5 | 5
COc1cc(-c2cnc(N3C(=O)N(C)CC3O)cc2C(F)(F)F)ccn1 (centres unmarked) [Compound A24] | 5 | 5 | 5 | 5 | 2 | 5 | 5 | 5 | 5 | 5
COc1ccc(-c2cnc(N3C(=O)N(C)CC3O)cc2C(F)(F)F)c(OC)n1 (centres unmarked) [Compound A25] | 5 | 5 | 5 | 3 | 2 | 5 | 5 | 5 | 5 | 2
CN1CC(O)N(c2cc(C(F)(F)F)c(-c3cnc(C#N)nc3)cn2)C1=O (centres unmarked) [Compound A27] | 5 | 3 | 5 | 2 | 1 | 5 | 5 | 3 | 5 | 3
CN1CC(O)N(c2cc(C(F)(F)F)c(-c3cnn(C)c3)cn2)C1=O (centres unmarked) [Compound A28] | 5 | 5 | 5 | 4 | 3 | 5 | 5 | 5 | 5 | 5
CN1CC(O)N(c2cc(C(F)(F)F)c(-c3ccncc3C#N)cn2)C1=O (centres unmarked) [Compound A29] | 5 | 5 | 5 | 5 | 3 | 5 | 5 | 5 | 5 | 4
CN1CC(O)N(c2cc(C(F)(F)F)c(-c3ccc(N4CCOCC4)nc3)cn2)C1=O (centres unmarked) [Compound A31] | 2 | 0 | 2 | 2 | 0 | 5 | 5 | 5 | 4 | 2
CN1CC(O)N(c2cc(C(F)(F)F)c(-c3ccc(F)nc3)cn2)C1=O (centres unmarked) [Compound A32] | 5 | 5 | 5 | 5 | 3 | 5 | 5 | 5 | 5 | 5
COc1cncc(-c2cnc(N3C(=O)N(C)CC3O)cc2C(F)(F)F)c1 (centres unmarked) [Compound A33] | 5 | 4 | 5 | 3 | 2 | 5 | 5 | 5 | 5 | 4

— patent US20160251332A1, “Herbicidal Compounds” (SYNGENTA PARTICIPATIONS AG, priority 2013, published 2016)
